Laboratory results published in the supplement of paper PMC10627819.

Legend:
S. pneumoniae D39V [1] = test: fitness (endpoint OD595 vs no drug) (fraction); higher = more growth
Outline: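 Cultures at OD595 0.01 were dispensed into 384-well plates in TSB, LB Lennox or CY and incubated at 37 °C. Every 30 min for 14 h, OD595 was read and corrected by the first reading. Fitness is the optical density at entry into stationary phase relative to the robust mean of no-drug control wells, capped at 1.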

B. subtilis 168 = test: Bliss interaction score (quartile over a dose matrix) (fitness difference); higher = more antagonism (negative = synergy)
Outline: (§1)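 The Bliss score takes observed fitness and subtracts the expected fitness, calculated as a product of single-drug fitness values. Those single-drug values were inferred from the combination data. Fitness is OD595 at entry into stationary phase divided by the plate's robust no-drug mean, capped at 1, and the score is summarised by quartiles across technical, biological and donor/recipient replicates.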

S. aureus DSM 20231 = test: as above
Outline: as §1

S. aureus Newman = test: as above
Outline: as §1

S. pneumoniae D39V [2] = test: as above
Outline: as §1
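Wherever Bliss interaction score (quartile over a dose matrix) is given: first quartile when negative (synergy) and third quartile when positive (antagonism).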

C[C@@H](O)[C@H]1C(=O)N2C(C(=O)O)=C(SCCNC=N)C[C@H]12 [Imipenem] + CC1=C\[C@@H](O)CC(=O)Cc2nc(co2)C(=O)N2CCC=C2C(=O)O[C@H](C(C)C)[C@H](C)/C=C/C(=O)NC\C=C\1 [Virginiamycin M1]
fitness, S. pneumoniae D39V [1], one replicate
Details	partner 0.15 µg/mL	partner 0.3 µg/mL	partner 0.5 µg/mL	partner 1 µg/mL
first compound 0.005 µg/mL	0.993	0.88	0.978	0.979
first compound 0.01 µg/mL	≥ 1	0.995	0.97	≥ 1
first compound 0.02 µg/mL	0.988	0.901	0.978	≥ 1

fitness, S. pneumoniae D39V [1]
Details	first compound 0.005 µg/mL	first compound 0.0065 µg/mL	first compound 0.01 µg/mL	first compound 0.013 µg/mL	first compound 0.02 µg/mL	first compound 0.026 µg/mL
partner 0.5 µg/mL	–	0.992	–	0.999	–	0.964
partner 1 µg/mL	–	0.983	–	≥ 1	–	0.978
partner 2 µg/mL	0.893	0.983	0.88	–	0.888	0.891

Details	Bliss interaction score
B. subtilis 168	0.0502
S. aureus DSM 20231	0.0515
S. aureus Newman	-0.0199
S. pneumoniae D39V [2]	0.0822

C[C@@H](O)[C@H]1C(=O)N2C(C(=O)O)=C(SCCNC=N)C[C@H]12 [Imipenem] + CC(=O)NC[C@H]1CN(c2ccc(N3CCOCC3)c(F)c2)C(=O)O1 [Linezolid]
fitness, S. pneumoniae D39V [1]
Details	first compound 0.005 µg/mL	first compound 0.0065 µg/mL	first compound 0.01 µg/mL	first compound 0.013 µg/mL	first compound 0.02 µg/mL	first compound 0.026 µg/mL
partner 0.105 µg/mL	0.845	–	0.837	–	0.833	–
partner 0.2 µg/mL	–	0.7	–	0.775	–	0.71
partner 0.21 µg/mL	0.752	–	0.727	–	0.701	–
partner 0.4 µg/mL	–	0.506	–	0.592	–	0.494
partner 0.42 µg/mL	0.6	–	0.47	–	0.578	–
partner 0.8 µg/mL	–	0.116	–	0.225	–	0.148

Details	Bliss interaction score
B. subtilis 168	0.128
S. aureus DSM 20231	0.0377
S. aureus Newman	0.0656
S. pneumoniae D39V [2]	-0.109

C[C@@H](O)[C@H]1C(=O)N2C(C(=O)O)=C(SCCNC=N)C[C@H]12 [Imipenem] + CCC(C)C1C(=O)NC(=C)C(=O)NC(C(=O)NC(CSCC(C(=O)N1)NC(=O)/C(=C/C)/NC(=O)C(C(C)CC)N)C(=O)NC2C(SCC(NC(=O)CNC(=O)C3CCCN3C2=O)C(=O)NC(CCCCN)C(=O)NC4C(SCC(NC(=O)CNC(=O)C(NC(=O)C(NC(=O)C(NC(=O)CNC4=O)C)CC(C)C)CCSC)C(=O)NC(CC(=O)N)C(=O)NC(CCSC)C(=O)NC(CCCCN)C(=O)NC5C(SCC6C(=O)NC(C(=O)NC(CSC(C(C(=O)N6)NC(=O)C(NC5=O)C)C)C(=O)NC(CO)C(=O)NC(C(C)CC)C(=O)NC(CC7=CN=CN7)C(=O)NC(C(C)C)C(=O)NC(=C)C(=O)NC(CCCCN)C(=O)O)CC8=CN=CN8)C)C)C)CC(C)C [Nisin]
fitness, S. pneumoniae D39V [1], main component drawn
Details	first compound 0.005 µg/mL	first compound 0.0065 µg/mL	first compound 0.01 µg/mL	first compound 0.013 µg/mL	first compound 0.02 µg/mL	first compound 0.026 µg/mL
partner 0.4275 µg/mL	≥ 1	–	0.988	–	≥ 1	–
partner 0.855 µg/mL	0.992	–	0.993	–	≥ 1	–
partner 1.6 µg/mL	–	0	–	0.193	–	0.448
partner 1.71 µg/mL	0.133	–	0.0676	–	0.0904	–
partner 3.2 µg/mL	–	0	–	0.0047	–	0.0017
partner 6.4 µg/mL	–	0	–	0.0067	–	0

main component drawn
Details	Bliss interaction score
B. subtilis 168	-0.0431
S. aureus DSM 20231	0.0486
S. aureus Newman	-0.0142
S. pneumoniae D39V [2]	-0.0573

C[C@@H](O)[C@H]1C(=O)N2C(C(=O)O)=C(SCCNC=N)C[C@H]12 [Imipenem] + CCC[C@@H]1C[C@@H](C(=O)N[C@@H]([C@H]2O[C@H](SC)[C@H](O)[C@@H](O)[C@H]2O)[C@@H](C)O)N(C)C1 [Lincomycin]
fitness, S. pneumoniae D39V [1]
Details	first compound 0.005 µg/mL	first compound 0.0065 µg/mL	first compound 0.01 µg/mL	first compound 0.013 µg/mL	first compound 0.02 µg/mL	first compound 0.026 µg/mL
partner 0.2 µg/mL	–	0.68	–	0.738	–	0.693
partner 0.215 µg/mL	0.829	–	0.846	–	0.814	–
partner 0.4 µg/mL	–	0.563	–	0.626	–	0.596
partner 0.43 µg/mL	0.719	–	0.722	–	0.71	–
partner 0.8 µg/mL	–	0.0187	–	0.0703	–	0.0319
partner 0.86 µg/mL	0.474	–	0.451	–	0.453	–

Details	Bliss interaction score
B. subtilis 168	0.163
S. aureus DSM 20231	0.09
S. aureus Newman	0.0416
S. pneumoniae D39V [2]	-0.0603

C[C@@H](O)[C@H]1C(=O)N2C(C(=O)O)=C(SCCNC=N)C[C@H]12 [Imipenem] + CCN(CC)CCOC(=O)c1ccc(N)cc1 [Procaine]
fitness, S. pneumoniae D39V [1], one replicate
Details	first compound 0.005 µg/mL	first compound 0.01 µg/mL	first compound 0.02 µg/mL
partner 85.5 µg/mL	0.932	0.963	0.985
partner 171 µg/mL	≥ 1	0.994	≥ 1
partner 342 µg/mL	0.923	0.931	0.883

fitness, S. pneumoniae D39V [1]
Details	first compound 0.0065 µg/mL	first compound 0.013 µg/mL	first compound 0.026 µg/mL
partner 85.5 µg/mL	0.977	0.978	0.888
partner 171 µg/mL	0.957	0.963	0.917
partner 342 µg/mL	0.957	0.912	0.841

Details	Bliss interaction score
B. subtilis 168	0.0429
S. aureus DSM 20231	0.0667
S. aureus Newman	0.0422
S. pneumoniae D39V [2]	0.0493
